Test results: PubChem BioAssay (NCI)
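Cultured in 96-well plates, cells were exposed to test compound for 48 hours across five concentrations. TGI is the concentration that stops growth completely.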

Assays:
Experiment in all cases: NCI anticancer screen, dose series, 48 h
MCF7 breast = system: MCF7 breast
SNB-19 CNS = system: SNB-19 CNS
M14 melanoma = system: M14 melanoma
OVCAR-8 ovarian = system: OVCAR-8 ovarian
SK-MEL-5 melanoma = system: SK-MEL-5 melanoma
MDA-MB-435 = system: MDA-MB-435
LOX IMVI melanoma = system: LOX IMVI melanoma
COLO 205 colon = system: COLO 205 colon
T-47D breast = system: T-47D breast
OVCAR-5 ovarian = system: OVCAR-5 ovarian
HS 578T breast = system: HS 578T breast
PC-3 prostate = system: PC-3 prostate

Measured: TGI

CC(=O)/C(=C/N1C(=O)CC(=O)NC1=S)C(=O)Nc1ccccc1C
> 100 µM: MCF7 breast | SNB-19 CNS | M14 melanoma | OVCAR-8 ovarian | SK-MEL-5 melanoma | MDA-MB-435 | LOX IMVI melanoma | COLO 205 colon | T-47D breast | OVCAR-5 ovarian

CC(C)(C)c1cc(N=NC(=S)NCc2ccccc2)cc(C(C)(C)C)c1O
> 100 µM: SNB-19 CNS | M14 melanoma | OVCAR-8 ovarian | SK-MEL-5 melanoma | LOX IMVI melanoma | COLO 205 colon

NC(=Nc1ccc(Cl)c(Cl)c1)c1ccccc1N
41.4 µM: M14 melanoma
42.2 µM: MDA-MB-435
69.3 µM: LOX IMVI melanoma
> 100 µM: MCF7 breast | SNB-19 CNS | OVCAR-8 ovarian | OVCAR-5 ovarian
50 µM: HS 578T breast
54.7 µM: SK-MEL-5 melanoma
52.8 µM: COLO 205 colon
92.4 µM: PC-3 prostate

CCOC(=O)C(NC(=O)NCc1ccc(F)cc1)C(F)(F)F (stereo not drawn)
> 100 µM: HS 578T breast | SNB-19 CNS | M14 melanoma | OVCAR-8 ovarian | SK-MEL-5 melanoma | MDA-MB-435 | LOX IMVI melanoma | PC-3 prostate | COLO 205 colon | T-47D breast | OVCAR-5 ovarian

COc1cc(/C=C2\CCC(C)c3c2nc(N)c(C#N)c3-c2cc(OC)c(OC)c(OC)c2)cc(OC)c1OC (stereo not drawn)
75.1 µM: HS 578T breast
> 100 µM: MCF7 breast | SNB-19 CNS | M14 melanoma | SK-MEL-5 melanoma | MDA-MB-435 | LOX IMVI melanoma | PC-3 prostate | OVCAR-5 ovarian
40.3 µM: OVCAR-8 ovarian

c1ccc2c(NCCCCCCCCNc3cccc4ccccc34)cccc2c1
> 100 µM: SNB-19 CNS | OVCAR-5 ovarian
35.4 µM: COLO 205 colon
54.8 µM: OVCAR-8 ovarian
> 10 µM: SK-MEL-5 melanoma
39.6 µM: M14 melanoma

O=S(=O)([N-]c1nc2ccccc2nc1-[n+]1ccccc1)c1ccccc1
> 100 µM: HS 578T breast | MCF7 breast | SNB-19 CNS | M14 melanoma | OVCAR-8 ovarian | SK-MEL-5 melanoma | LOX IMVI melanoma | PC-3 prostate | COLO 205 colon | T-47D breast | OVCAR-5 ovarian

COC(=O)C1=C(C(=O)OC)C(C(=O)c2ccccc2)N2N=C(c3ccc(Cl)cc3)C=CC12 (stereo not drawn)
> 100 µM: MCF7 breast | SNB-19 CNS | M14 melanoma | OVCAR-8 ovarian | SK-MEL-5 melanoma | MDA-MB-435 | LOX IMVI melanoma | PC-3 prostate | COLO 205 colon | T-47D breast | OVCAR-5 ovarian

Clc1cccc(Cl)c1C1SCc2nc3cc4ccccc4cc3n21 (stereo not drawn)
> 100 µM: HS 578T breast | MCF7 breast | SNB-19 CNS | M14 melanoma | OVCAR-8 ovarian | SK-MEL-5 melanoma | MDA-MB-435 | PC-3 prostate | COLO 205 colon | T-47D breast | OVCAR-5 ovarian

COc1ccc2c(c1)CC1NC2Cc2ccccc21 (stereo not drawn)
> 100 µM: M14 melanoma | OVCAR-8 ovarian | SK-MEL-5 melanoma | COLO 205 colon | OVCAR-5 ovarian

NC(=O)CC1(O)C=CC(=O)C=C1
> 100 µM: MCF7 breast | SNB-19 CNS | M14 melanoma | OVCAR-8 ovarian | SK-MEL-5 melanoma | MDA-MB-435 | LOX IMVI melanoma | PC-3 prostate | COLO 205 colon | T-47D breast | OVCAR-5 ovarian

Cc1nc2c(n1CCCl)C(=O)c1ccccc1C2=O
41.6 µM: MCF7 breast
28.6 µM: MDA-MB-435
17.1 µM: M14 melanoma
> 100 µM: HS 578T breast | SNB-19 CNS
36.3 µM: OVCAR-5 ovarian
42.6 µM: OVCAR-8 ovarian
46.1 µM: PC-3 prostate
30.2 µM: COLO 205 colon

Cc1cc(C)n(C(=O)C(C)Sc2nnc(SC(C)C(=O)n3nc(C)cc3C)s2)n1 (stereo not drawn)
> 100 µM: HS 578T breast | MCF7 breast | SNB-19 CNS | M14 melanoma | OVCAR-8 ovarian | SK-MEL-5 melanoma | MDA-MB-435 | LOX IMVI melanoma | PC-3 prostate | COLO 205 colon | OVCAR-5 ovarian

COC(=O)CC1CN(C(=O)OCc2ccccc2)C(C)(C)O1 (stereo not drawn)
> 100 µM: MCF7 breast | SNB-19 CNS | M14 melanoma | OVCAR-8 ovarian | SK-MEL-5 melanoma | MDA-MB-435 | LOX IMVI melanoma | PC-3 prostate | COLO 205 colon | OVCAR-5 ovarian

Cn1c(=S)[nH]c2c(Cl)cc(Cl)cc2c1=O
> 100 µM: HS 578T breast | MCF7 breast | SNB-19 CNS | M14 melanoma | OVCAR-8 ovarian | SK-MEL-5 melanoma | MDA-MB-435 | LOX IMVI melanoma | PC-3 prostate | COLO 205 colon | OVCAR-5 ovarian

C=CCN1C(=O)N/C(=C\c2ccc(Cl)cc2)C1=O
> 100 µM: HS 578T breast | MCF7 breast | SNB-19 CNS | M14 melanoma | OVCAR-8 ovarian | SK-MEL-5 melanoma | MDA-MB-435 | LOX IMVI melanoma | COLO 205 colon | T-47D breast | OVCAR-5 ovarian

Cc1cc(Cl)ccc1NC(=O)/C(CC(=O)CC(c1ccccc1)c1c(O)c2ccccc2oc1=O)=N\O (stereo not drawn)
> 100 µM: HS 578T breast | MCF7 breast | SNB-19 CNS | M14 melanoma | OVCAR-8 ovarian | SK-MEL-5 melanoma | MDA-MB-435 | LOX IMVI melanoma | PC-3 prostate | COLO 205 colon | OVCAR-5 ovarian

O=C(/C=C(\O)C(=O)O)/C=C(\O)c1ccccc1Cl
> 100 µM: SNB-19 CNS | M14 melanoma | OVCAR-8 ovarian | SK-MEL-5 melanoma | LOX IMVI melanoma | COLO 205 colon | OVCAR-5 ovarian

CC1C(c2ccccc2)=CCON1c1ccccc1 (stereo not drawn)
> 100 µM: SNB-19 CNS | M14 melanoma | OVCAR-8 ovarian | SK-MEL-5 melanoma | LOX IMVI melanoma | COLO 205 colon | OVCAR-5 ovarian

CC/C(=C/OC)P1(=O)OC(C)(C)CN1C(C)(C)C (stereo not drawn)
> 100 µM: MCF7 breast | SNB-19 CNS | M14 melanoma | OVCAR-8 ovarian | SK-MEL-5 melanoma | MDA-MB-435 | LOX IMVI melanoma | PC-3 prostate | COLO 205 colon | T-47D breast | OVCAR-5 ovarian

CC1=C(N(C)C)C(=O)c2nc3n(c2C1=O)CCC3OC(N)=O (stereo not drawn)
34 µM: OVCAR-5 ovarian
23.7 µM: SK-MEL-5 melanoma
25.7 µM: LOX IMVI melanoma
33.1 µM: COLO 205 colon
27.4 µM: M14 melanoma
34.3 µM: OVCAR-8 ovarian
31.4 µM: SNB-19 CNS
